# According to patent publication US11730723B2, “Compounds and methods for treating viral infections” (priority 2020, dated 2023):
# Values joined by “and” are separate entries in the source; they are usually repeats but may differ in a detail not shown here. Identical values can stand only once. Like-named read-outs stand apart in the source and are kept apart here.
# Legend:
# [1] = system: HCoV 229E; assay: HCoV 229E CPE assay in MRC-5 cells (CellTiter Glo); assay type: cell-based, human coronavirus (HCoV) 229E; details: unidentified human coronavirus, MRC5, read-out: HCoV 229E CPE assay EC50
# [2] = system: MRC-5 cells; assay: Cell viability of uninfected drug control MRC-5 cells (XTT), TC50; details: read-out: TC50, uninfected MRC-5 cells, 6 days
# [3] = system: H292 cells (NCI-H292); assay: Cytotoxicity in uninfected H292 cells (MTT); details: CC50, uninfected H292 cells
# [4] = system: HCoV-OC43; assay: HCoV-OC43 efficacy in H292 cells (MTT, 6 days); assay type: cell-based, HCoV-OC43 (Betacoronavirus 1); details: Betacoronavirus 1, OC43, NCI-H292, read-out: Efficacy
# [5] = system: alpha coronavirus 229E (CoV-229E); assay: CoV-229E virus-induced CPE inhibition in MRC-5 cells (XTT); details: 6 days
# [6] = Cytotoxicity on MRC-5 cells (CellTiter Glo); details: human
# [7] = Cytotoxicity on Huh7 cells (CellTiter Glo); details: human
# [8] = system: HCoV OC43; assay: HCoV OC43 CPE assay in Huh7 cells (CellTiter Glo); assay type: cell-based, human coronavirus (HCoV) OC43; details: Betacoronavirus 1, OC43, Huh-7, read-out: HCoV OC43 CPE Assay EC50
# [9] = system: dengue virus (DENV) serotype 2 strain D2S221; assay: Dengue virus D2S221 inhibition assay in Vero cells (immunostaining); details: read-out: D2S221 IC50
# [10] = system: HBV wild-type strain ayw1; assay: Primary anti-HBV assay in HepG2 2.2.15 cells (qPCR of HBV DNA); details: Hepatitis B virus, HepG2 2.2.15, 144 h
# [11] = Cytotoxicity in HepG2 2.2.15 cells (MTS); assay type: cell-based; details: human, same assay plate
# [12] = system: HCoV-OC43; assay: HCoV-OC43 CPE assay in Huh-7 cells (neutral red uptake, 6 days); assay type: cell-based, human coronavirus (HCoV) OC43 strain; details: for Raw OD-Absorbance 490 nm: infected Huh-7, neutral red uptake, individual replicates
# [13] = system: SARS-CoV-2 (USA-WA1/2020); assay: microbe, parasite or virus in culture; details: Severe acute respiratory syndrome coronavirus 2, Vero C1008, 48 h, read-out: Live SARS-CoV-2 Antiviral Assay IC50
# [14] = system: Vero E6 cells; details: for viability of Vero E6 cells (percent of vehicle alone): 2-day treatment, mean ± SD of duplicates
# [15] = in vitro; details: African green monkey
# [16] = system: SARS-CoV-2 (USA-WA1/2020); details: Compound 1 at 25 μM; HCQ at 5 μM; remdesivir 10 μM
# [17] = system: Huh-7 cells; assay: Cytotoxicity / viability of uninfected Huh-7 cells (XTT, 6 days); details: for Viability of Huh-7 Cells (A490): raw absorbance 490 nm; for Viability (A490): control
compound,measurement,setting,value
CCC(CC)COC(=O)[C@H](C)N[P@](=O)(OC[C@H]1O[C@@](C#N)(c2ccc3c(N)ncnn23)[C@H](O)[C@@H]1O)Oc1ccccc1 [Remdesivir],EC50,[1],20 nM
same,CC50,[2],> 2000 nM
same,Cytotoxicity,[3],>20 µM
same,EC50,[4],37500 nM
same,EC50,[5],130 nM
same,CC50,[6],27900 nM
same,CC50,[7],6170 nM
same,EC50,[8],20 nM
CCN(CC)CCCC(C)Nc1ccnc2cc(Cl)ccc12 (stereo not drawn) [Chloroquine diphosphate],IC50,[9],23700 nM
CCN(CC)CCNC(=O)c1c(C)[nH]c(/C=C2\C(=O)Nc3ccc(F)cc32)c1C [Sunitinib],IC50,[9],4060 nM
same,CC50,[2],1320 nM
same,Cytotoxicity,[3],10 to 50 µM
same,EC50,[5],630 nM
C=C1[C@H](CO)[C@@H](O)C[C@@H]1n1cnc2c(=O)[nH]c(N)nc21 [Entecavir],EC50,[10],0.44 nM
same,EC90,[10],> 1000 nM
same,CC50,[11],> 1000 nM
CCN(CC)CCCC(C)Nc1ccnc2cc(Cl)ccc12 (stereo not drawn) [Chloroquine],Inhibition of OC43 Virus-Induced CPE in Huh-7 Cells,"[12]; CQ 5 μM, relative to uninfected cells (mock), listed as CQ",87.8%
same,Raw OD-Absorbance 490 nm,"[12]; CQ 5 μM, listed as CQ",0.693 and 0.689
same,Cytotoxicity,[3],46.04 µM
same,EC50,[5],490 nM
"CCN(CCO)CCCC(C)Nc1ccnc2cc(Cl)ccc12 (stereo not drawn) [HCQ, hydroxychloroquine]",IC50,[13],~3000 nM
same,viability of Vero E6 cells (percent of vehicle alone),[14]; 0.16 μM,103.9 ± 6.9%
same,viability of Vero E6 cells (percent of vehicle alone),[14]; 0.31 μM,102.3 ± 4.6%
same,viability of Vero E6 cells (percent of vehicle alone),[14]; 0.63 μM,103.2 ± 3.4%
same,viability of Vero E6 cells (percent of vehicle alone),[14]; 1.25 μM,100.4 ± 0.5%
same,viability of Vero E6 cells (percent of vehicle alone),[14]; 2.5 μM,94.4 ± 7.9%
same,viability of Vero E6 cells (percent of vehicle alone),[14]; 5 μM,93.4 ± 6.5%
same,viability of Vero E6 cells (percent of vehicle alone),[14]; 10 μM,93.8 ± 6.0%
same,viability of Vero E6 cells (in words),"[14]; Compound 1 at concentrations lower than 25 μM, HCQ at all concentrations tested",not significantly changed
same,CC50,[15],> 10000 nM
same,prevention of the SARS-CoV-2 induced CPE (in words),[16],prevented most of the virus-induced CPE
Sunitinib maleate,Viability of Huh-7 Cells (A490),"[17]; 0.01 μM, 6 days, individual replicates",0.721 and 0.651
same,Viability of Huh-7 Cells (A490),"[17]; 0.04 μM, 6 days, individual replicates",0.738 and 0.751
same,Viability of Huh-7 Cells (A490),"[17]; 0.12 μM, 6 days, individual replicates",0.719 and 0.752
same,Viability of Huh-7 Cells (A490),"[17]; 0.37 μM, 6 days, individual replicates",0.732 and 0.765
same,Viability of Huh-7 Cells (A490),"[17]; 1.1 μM, 6 days, individual replicates",0.676 and 0.665
same,Viability of Huh-7 Cells (A490),"[17]; 3.3 μM, 6 days, individual replicates",0.642 and 0.601
same,Viability of Huh-7 Cells (A490),"[17]; 10 μM, 6 days, individual replicates",0.543 and 0.554
same,Viability of Huh-7 Cells (A490),"[17]; 30 μM, 6 days, individual replicates",0.058 and 0.055
same,Viability of Huh-7 Cells (A490),"[17]; 90 μM, 6 days, individual replicates",0.053 and 0.054
same,CC50,"[17]; read-out: Cytotoxicity (Huh-7 cells) CC50, 6 days, XTT",13000 nM
same,Inhibition of OC43 Virus-Induced CPE in Huh-7 Cells,"[12]; 0.01 μM, mean of duplicates",1.1%
same,Inhibition of OC43 Virus-Induced CPE in Huh-7 Cells,"[12]; 0.04 μM, mean of duplicates",−1.2%
same,Inhibition of OC43 Virus-Induced CPE in Huh-7 Cells,"[12]; 0.12 μM, mean of duplicates",−0.1%
same,Inhibition of OC43 Virus-Induced CPE in Huh-7 Cells,"[12]; 0.4 μM, mean of duplicates",−2.4%
same,Inhibition of OC43 Virus-Induced CPE in Huh-7 Cells,"[12]; 1.1 μM, mean of duplicates",−1.0%
same,Inhibition of OC43 Virus-Induced CPE in Huh-7 Cells,"[12]; 3.3 μM, mean of duplicates",17.9%
same,Inhibition of OC43 Virus-Induced CPE in Huh-7 Cells,"[12]; 10 μM, mean of duplicates",21.4%
same,Inhibition of OC43 Virus-Induced CPE in Huh-7 Cells,"[12]; 30 μM, mean of duplicates",−7.8%
same,EC50,"[12]; Huh-7 cells, 6 days, neutral red",> 30000 nM
same,Raw OD-Absorbance 490 nm,[12]; 0.01 μM,0.120
same,Raw OD-Absorbance 490 nm,[12]; 0.04 μM,0.094
same,Raw OD-Absorbance 490 nm,[12]; 0.4 μM,0.086 and 0.090
same,Raw OD-Absorbance 490 nm,[12]; 1.1 μM,0.094
same,Raw OD-Absorbance 490 nm,[12]; 3.3 μM,0.312 and 0.136
same,Raw OD-Absorbance 490 nm,[12]; 10 μM,0.214 and 0.280
same,Raw OD-Absorbance 490 nm,[12]; 30 μM,0.051 and 0.053
NC(=O)c1ncn([C@@H]2O[C@H](CO)[C@@H](O)[C@H]2O)n1 [Ribavirin],IC50,[9],71100 nM
CC[C@H]1CN2CCc3cc(OC)c(OC)cc3[C@@H]2C[C@@H]1C[C@H]1NCCc2cc(OC)c(OC)cc21 [Emetine],Viability (A490),"[17]; 1 μM, percentage viability vs medium only",18.3 ± 0.3%
same,Viability (A490),"[17]; 1 μM, raw absorbance, individual replicates",0.176 and 0.179
same,Viability (A490),"[17]; 5 μM, percentage viability vs medium only",8.2 ± 0.7%
same,Viability (A490),"[17]; 5 μM, raw absorbance, individual replicates",0.104 and 0.111
same,cell viability blocked / inhibited,"[17]; cytotoxic control, XTT, tested at 5 μM",more than 90%
"Nc1ccn([C@@H]2CS[C@H](CO)O2)c(=O)n1 [Compound 3TC, Lamivudine]",EC50,[10],28.3 nM
same,EC90,[10],> 2000 nM
same,CC50,[11],> 2000 nM
